Converted amounts (≈) assume the structure as drawn. Like-named read-outs stand apart in the source and are kept apart here.
How the values were obtained:
[1] = test system: Escherichia coli MC4100 harboring the IMP4213; assay: MIC, broth micro-dilution technique (CLSI); format: cell-based; settings: 35° C., 22 hours; for MIC: Escherichia coli, 22 h, read-out: MIC (μg/mL) E. coli, Table 1 protocol: serial 2-fold dilutions starting from 64 μg/ml; for MIC (μg/mL) E. coli: Table 1 protocol: serial 2-fold dilutions starting from 64 μg/ml
Procedure: (§1) In vitro antimicrobial activity of each compound was determined by measuring minimal inhibitor concentrations (MICs) using the broth micro-dilution technique as approved by the Clinical and Laboratory Standards Institute (CLSI) (Methods for Dilution Antimicrobial Susceptibility Tests for Bacteria that Grow Aerobically; Approved Standard—Eighth Edition. CLSI document M07-A8. Wayne, Pa.: Clinical and Laboratory Standards; 2009). Antibacterial activity was measured against three strains of bacteria: a Methicillin Resistant Staphylococcus aureus strain USA 300 (NRS384); a MRSA COL (NRS100), another Methicillin Resistant Staphylococcus aureus strain; and a strain of Escherichia coli MC4100 harboring the IMP4213, which results in increased outer-membrane permeability (B Martin and Silhavy T. Imp/OstA is required for cell envelope biogenesis in Escherichia coli. (2002) Molecular Microbiology, 45(5), 1289-1302). Cells were inoculated onto plates of Trypyticase Soy Agar or Luria Agar respectively and grown at 35° C. for 20 hours. Inocula suspensions were prepared by scraping cells into 1 ml of testing media (cation adjusted Mueller Hinton Broth supplemented with 0.002% v/v Tween-80) and diluting to a final OD600 nm of 0.01.
(§2) Test compounds were prepared in DMSO at a concentration of 10 mg/ml. These compound stocks were diluted into testing media at a concentration of 64 μg/ml and serial 2-fold dilutions were made in the same media, in 96-well U bottom microtiter dishes, for a total of 10 compound concentrations (Table 1). In modified protocols (Table 2), compound stocks were diluted into testing media at a concentration of 4 μg/mL and serial 2-fold dilutions were made in the same media, in 96-well U bottom microtiter dishes, for a total of 10 compound concentrations. Inocula suspensions were added to the 2-fold serial dilutions of test compounds to a final density of OD OD600 nm of 0.0005 and incubated at 35° C. for 22 hours. […] The results from the protocol starting from a concentration of 64 µg/mL are listed in Table 1 and the results from the modified protocol are shown in Table 2.

[2] = test system: Methicillin Resistant Staphylococcus aureus strain USA 300 (NRS384); assay: MIC, broth micro-dilution technique (CLSI); format: cell-based; settings: for MIC: Staphylococcus aureus, 22 h, read-out: MIC (μg/mL) S. aureus
Procedure: as §1, §2

[3] = Table 1 protocol: serial 2-fold dilutions starting from 64 μg/ml, 35° C., 22 hours

SMILES	MIC [1] [µg/mL]	MIC [2, 3] [µg/mL]	MIC [2] [µg/mL]	MIC (μg/mL) E. coli [1] [µg/mL]	MIC (μg/mL) S. aureus [2, 3] [µg/mL]
CC[C@H](NC(=O)[C@@H]1Cc2ccc(O)c(c2)-c2cc(ccc2O)[C@H](N(C)C(=O)[C@H](CCCCN)NC(=O)c2ccc(-c3ccc(Cl)cc3)cc2)C(=O)N[C@@H](C)C(=O)N1)C(=O)N1CCC[C@H]1C(N)=O [Compound 181]	64 (≈ 68.3 µM)	23 (≈ 24.5 µM)	–	–	–
C[C@@H]1NC(=O)[C@@H](N(C)C(=O)[C@H](CCCCN)NC(=O)c2ccc(-c3ccc(Cl)cc3)cc2)c2ccc(O)c(c2)-c2cc(ccc2O)C[C@@H](C(=O)N[C@@H](C)C(=O)N2CCC[C@H]2CO)NC1=O [Compound 157]	45 (≈ 49.4 µM)	–	> 64	–	–
C[C@@H]1NC(=O)[C@@H](N(C)C(=O)[C@H](CCCCN)NC(=O)c2ccc(-c3ccc(Cl)cc3)cc2)c2ccc(O)c(c2)-c2cc(ccc2O)C[C@@H](C(=O)NCC(=O)CC2CCNC2=O)NC1=O (stereo partly drawn) [Compound 150]	–	> 64	–	8 (≈ 8.94 µM)	–
C[C@@H]1NC(=O)[C@@H](N(C)C(=O)[C@H](CCCCN)NC(=O)c2ccc(-c3ccc(Cl)cc3)cc2)c2ccc(O)c(c2)-c2cc(ccc2O)C[C@@H](C(=O)NCC(=O)CC2CCNC2=O)NC1=O (stereo partly drawn) [Compound 151]	–	–	–	32 (≈ 35.8 µM)	>64
C[C@@H]1NC(=O)[C@@H](N(C)C(=O)[C@H](CCCCN)NC(=O)c2ccc(-c3ccc(Cl)cc3)cc2)c2ccc(O)c(c2)-c2cc(ccc2O)C[C@@H](C(=O)N[C@@H](C)C(=O)N2CCCC[C@H]2C(N)=O)NC1=O [Compound 173]	32 (≈ 34.1 µM)	64 (≈ 68.3 µM)	–	–	–
C[C@@H]1NC(=O)[C@@H](N(C)C(=O)[C@H](CCCCN)NC(=O)c2ccc(-c3ccc(Cl)cc3)cc2)c2cc(Br)c(O)c(c2)-c2cc(cc(Br)c2O)C[C@@H](C(=O)O)NC1=O [Compound 164]	8 (≈ 8.75 µM)	–	32 (≈ 35 µM)	–	–
C[C@@H]1NC(=O)[C@@H](N(C)C(=O)[C@H](CCCCN)NC(=O)c2ccc(-c3ccc(Cl)cc3)cc2)c2ccc(O)c(c2)-c2cc(ccc2O)C[C@@H](C(=O)N[C@@H](C)C(=O)N2C[C@@H](F)C[C@H]2C(N)=O)NC1=O [Compound 172]	64 (≈ 68 µM)	16 (≈ 17 µM)	–	–	–
CCCCCCCCCCCCCC(=O)N[C@@H](CN)C(=O)N(C)[C@@H]1C(=O)N[C@@H](C)C(=O)N[C@H](C(=O)N[C@@H](C)B2O[C@@H]3C[C@@H]4C[C@@H](C4(C)C)[C@]3(C)O2)Cc2ccc(OCCN)c(c2)-c2cc1ccc2OCCN [Compound 318]	0.063 (≈ 0.0629 µM)	–	–	–	–
C[C@H](NC(=O)[C@@H]1Cc2ccc(O)c(c2)-c2cc(ccc2O)[C@H](N(C)C(=O)[C@H](CCCCN)NC(=O)c2ccc(-c3ccc(Cl)cc3)cc2)C(=O)N[C@@H](C)C(=O)N1)C(=O)CCl [Compound 108]	8 (≈ 9.3 µM)	–	4 (≈ 4.65 µM)	–	–
C[C@@H]1NC(=O)[C@@H](N(C)C(=O)[C@H](CCCCN)NC(=O)c2ccc(-c3ccc(Cl)cc3)cc2)c2ccc(O)c(c2)-c2cc(ccc2O)C[C@@H](C(=O)N[C@@H](C)C(=O)N2CC[C@H](O)[C@H]2C(N)=O)NC1=O [Compound 168]	32 (≈ 34.1 µM)	5.7 (≈ 6.07 µM)	–	–	–
C[C@H](NC(=O)[C@@H]1Cc2ccc(O)c(c2)-c2cc(ccc2O)[C@H](N(C)C(=O)[C@H](CCCCN)NC(=O)c2ccc(-c3ccc(Cl)cc3)cc2)C(=O)N[C@@H](C)C(=O)N1)C(=O)/C=C/c1c[nH]cn1 [Compound 131]	> 64	> 64	–	–	–
CC1OC1C(=O)[C@H](C)NC(=O)[C@@H]1Cc2ccc(O)c(c2)-c2cc(ccc2O)[C@H](N(C)C(=O)[C@H](CCCCN)NC(=O)c2ccc(-c3ccc(Cl)cc3)cc2)C(=O)N[C@@H](C)C(=O)N1 (stereo partly drawn) [Compound 105]	8 (≈ 9.22 µM)	4 (≈ 4.61 µM)	–	–	–
CCCCc1ccc(-c2ccc(C(=O)NC[C@@H](C)C(=O)N[C@@H](CCCCN)C(=O)N(C)[C@@H]3C(=O)N[C@@H](C)C(=O)N[C@H](C(=O)N[C@@H](C)C(=O)N4CCC[C@H]4C(N)=O)Cc4ccc(O)c(c4)-c4cc3ccc4OC(=O)OCC(C)C)cc2)cc1 [Compound 184]	–	–	2 (≈ 1.77 µM)	–	–
CONC(=O)[C@@H]1CCCN1C(=O)[C@H](C)NC(=O)[C@@H]1Cc2ccc(O)c(c2)-c2cc(ccc2O)[C@H](N(C)C(=O)[C@H](CCCCN)NC(=O)c2ccc(-c3ccc(Cl)cc3)cc2)C(=O)N[C@@H](C)C(=O)N1 [Compound 185]	64 (≈ 67.1 µM)	–	45 (≈ 47.2 µM)	–	–
CC(O)[C@@H]1Cc2ccc(O)c(c2)-c2cc(ccc2O)[C@H](N(C)C(=O)[C@H](CCCCN)NC(=O)c2ccc(-c3ccc(Cl)cc3)cc2)C(=O)N[C@@H](C)C(=O)N1 (stereo partly drawn) [Compound 154]	64 (≈ 84.6 µM)	–	64 (≈ 84.6 µM)	–	–
CCCCCCCC(=O)N[C@@H](CCCCN)C(=O)N(C)[C@@H]1C(=O)N[C@@H](C)C(=O)N[C@H](C(=O)N[C@@H](C)C(=O)C2CO2)Cc2ccc(O)c(c2)-c2cc1ccc2O (stereo partly drawn) [Compound 103]	23 (≈ 30.1 µM)	45 (≈ 58.8 µM)	–	–	–
CC1OC1C(=O)[C@H](C)NC(=O)[C@@H]1Cc2ccc(O)c(c2)-c2cc(ccc2O)[C@H](N(C)C(=O)[C@H](CCCCN)NC(=O)c2ccc(-c3ccc(Cl)cc3)cc2)C(=O)N[C@@H](C)C(=O)N1 (stereo partly drawn) [Compound 106]	–	–	–	11 (≈ 12.7 µM)	5.7 (≈ 6.57 µM)
C[C@@H]1NC(=O)[C@@H](N(C)C(=O)[C@H](CCCCN)NC(=O)c2ccc(-c3ccc(Cl)cc3)cc2)c2ccc(O)c(c2)-c2cc(ccc2O)C[C@@H](C(=O)N[C@@H](C)C(=O)N2C[C@H](O)C[C@H]2C(N)=O)NC1=O [Compound 169]	64 (≈ 68.1 µM)	45 (≈ 47.9 µM)	–	–	–
C[C@@H]1NC(=O)[C@@H](N(C)C(=O)[C@H](CCCCN)NC(=O)c2ccc(-c3ccc(Cl)cc3)cc2)c2ccc(O)c(c2)-c2cc(ccc2O)C[C@@H](C(=O)N[C@@H](C)C(=O)N2CC(F)(F)C[C@H]2C(N)=O)NC1=O [Compound 174]	64 (≈ 66.7 µM)	9.5 (≈ 9.9 µM)	–	–	–
C[C@@H]1NC(=O)[C@@H](N(C)C(=O)[C@H](CCCCN)NC(=O)c2ccc(-c3ccc(Cl)cc3)cc2)c2ccc(O)c(c2)-c2cc(ccc2O)C[C@@H](C(=O)N[C@@H](C)C(=O)N2C[C@H]3C[C@H]3[C@H]2C(N)=O)NC1=O [Compound 170]	64 (≈ 68.4 µM)	45 (≈ 48.1 µM)	–	–	–
C[C@H](NC(=O)[C@@H]1Cc2ccc(O)c(c2)-c2cc(ccc2O)[C@H](N(C)C(=O)[C@H](CCCCN)NC(=O)c2ccc(-c3ccc(Cl)cc3)cc2)C(=O)N[C@@H](C)C(=O)N1)C(=O)CS(N)(=O)=O [Compound 143]	51 (≈ 56.4 µM)	–	6.3 (≈ 6.97 µM)	–	–
CC[C@H](NC(=O)[C@@H]1Cc2ccc(O)c(c2)-c2cc(ccc2O)[C@H](N(C)C(=O)[C@H](CCCCN)NC(=O)c2ccc(-c3ccc(Cl)cc3)cc2)C(=O)N[C@@H](C)C(=O)N1)C(C)=O [Compound 127]	64 (≈ 76.2 µM)	–	> 64	–	–
CCCCc1ccc(-c2ccc(C(=O)N[C@@H](CN)C(=O)N(C)[C@@H]3C(=O)N[C@@H](C)C(=O)N[C@H](C(=O)O)Cc4ccc(OCCN)c(c4)-c4cc3ccc4OCCN)cc2)cc1 [Compound 292]	0.063 (≈ 0.0766 µM)	–	–	–	–
COC(=O)[C@@H]1CCCN1CC(=O)[C@H](C)NC(=O)[C@@H]1Cc2ccc(O)c(c2)-c2cc(ccc2O)[C@H](N(C)C(=O)[C@H](CCCCN)NC(=O)c2ccc(-c3ccc(Cl)cc3)cc2)C(=O)N[C@@H](C)C(=O)N1 [Compound 126]	> 64	–	32 (≈ 33.6 µM)	–	–
CCCCCCCC(=O)NCCC(=O)N[C@@H](CCCCN)C(=O)N(C)[C@@H]1C(=O)N[C@@H](C)C(=O)N[C@H](CO)Cc2ccc(O)c(c2)-c2cc1ccc2O [Compound 153]	–	130 (≈ 179 µM)	–	–	–
CC(=O)OCC(=O)[C@H](C)NC(=O)[C@@H]1Cc2ccc(O)c(c2)-c2cc(ccc2O)[C@H](N(C)C(=O)[C@H](CCCCN)NC(=O)c2ccc(-c3ccc(Cl)cc3)cc2)C(=O)N[C@@H](C)C(=O)N1 [Compound 123]	32 (≈ 36.2 µM)	–	3.2 (≈ 3.62 µM)	–	–
